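Cells were grown in 96-well plates and exposed to each compound for 48 hours at five concentrations; endpoints were interpolated linearly between bracketing concentrations, or set to the highest concentration if not reached. Here, GI50 denotes the concentration required for 50% inhibition of growth.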 Calls of active or inactive are those of the source. Rule as the data show it: active = GI50 up to about 1.1 µM and inactive = higher.
Assays:
Assay in all cases: DTP human tumour cell line panel, 48 h
SW-620 = tested on: SW-620
KM12 = tested on: KM12
COLO 205 = tested on: COLO 205
EKVX = tested on: EKVX
Hs-578T = tested on: Hs-578T
HT-29 = tested on: HT-29
HCT-116 = tested on: HCT-116
MOLT-4 = tested on: MOLT-4
SF-295 = tested on: SF-295
IGROV-1 = tested on: IGROV-1
TK-10 = tested on: TK-10
NCI-H522 = tested on: NCI-H522
CAKI-1 = tested on: CAKI-1
UACC-257 = tested on: UACC-257
DU-145 = tested on: DU-145
MDA-N = tested on: MDA-N
NCI-H23 = tested on: NCI-H23
UO-31 = tested on: UO-31
T47D = tested on: T47D
SR = tested on: SR

Measured: GI50

CCc1n[nH]c(=O)n1/N=C(\C)c1ccccc1
inactive: SW-620 > 100 µM | KM12 > 100 µM | COLO 205 > 100 µM | EKVX 68.5 µM | Hs-578T > 100 µM | HT-29 > 100 µM | HCT-116 > 100 µM | MOLT-4 > 100 µM | SF-295 > 100 µM | IGROV-1 > 100 µM | TK-10 > 100 µM | NCI-H522 > 100 µM | CAKI-1 > 100 µM | UACC-257 > 100 µM | DU-145 > 100 µM | MDA-N > 100 µM | NCI-H23 > 100 µM | UO-31 > 100 µM | T47D > 100 µM

O=C1CCC(=O)N1n1c(Cc2ccc(Cl)cc2)n[nH]c1=O
inactive: SW-620 > 100 µM | KM12 > 100 µM | COLO 205 > 100 µM | EKVX > 100 µM | Hs-578T > 100 µM | HT-29 > 100 µM | HCT-116 > 100 µM | MOLT-4 > 100 µM | SF-295 > 100 µM | IGROV-1 > 100 µM | TK-10 > 100 µM | NCI-H522 > 100 µM | CAKI-1 > 100 µM | UACC-257 > 100 µM | DU-145 > 100 µM | MDA-N > 100 µM | NCI-H23 > 100 µM | UO-31 > 100 µM | T47D > 100 µM

O=C(Nc1ccccc1)N1N=C(c2ccccc2)C1c1ccccc1 (stereo not given)
inactive: SW-620 35.8 µM | KM12 29.9 µM | COLO 205 41.7 µM | EKVX 40.4 µM | Hs-578T 24.2 µM | HT-29 20.5 µM | HCT-116 17.9 µM | SF-295 24.3 µM | IGROV-1 40.4 µM | TK-10 36.1 µM | NCI-H522 19.9 µM | CAKI-1 30.2 µM | UACC-257 31.8 µM | DU-145 > 100 µM | MDA-N 27.4 µM | NCI-H23 23.3 µM | UO-31 15.2 µM | T47D 59.6 µM

Cc1ccc(N2C(=O)C3c4[nH]c5ccc(C)cc5c4C4CCC(C(C)(C)C)CC4C3C2=O)cc1 (stereo not given)
inactive: SW-620 12.1 µM | KM12 18 µM | COLO 205 15.2 µM | EKVX 10.8 µM | Hs-578T 10.4 µM | HT-29 15.6 µM | HCT-116 14.3 µM | MOLT-4 2.48 µM | SF-295 15.2 µM | IGROV-1 13.1 µM | TK-10 16.5 µM | NCI-H522 14.3 µM | CAKI-1 17.6 µM | UACC-257 33.1 µM | DU-145 17.8 µM | MDA-N 21 µM | NCI-H23 16.6 µM | UO-31 37.9 µM | T47D 7.5 µM

c1ccc2c(c1)CCN(C1=NCCO1)C2
inactive: SW-620 > 10 µM | KM12 > 10 µM | COLO 205 > 10 µM | EKVX > 10 µM | Hs-578T > 10 µM | HT-29 > 10 µM | HCT-116 > 10 µM | MOLT-4 > 10 µM | SF-295 > 10 µM | IGROV-1 > 10 µM | TK-10 > 10 µM | NCI-H522 > 10 µM | CAKI-1 > 10 µM | UACC-257 > 10 µM | DU-145 > 10 µM | MDA-N > 10 µM | NCI-H23 > 10 µM | UO-31 > 10 µM | T47D > 10 µM

O=C(O)[C@H]1CCCN1CP(=O)(O)CN1CCC[C@@H]1C(=O)O
inactive: SW-620 > 100 µM | KM12 > 100 µM | COLO 205 > 100 µM | EKVX > 100 µM | Hs-578T > 100 µM | HT-29 > 100 µM | HCT-116 > 100 µM | MOLT-4 > 100 µM | SF-295 > 100 µM | IGROV-1 > 100 µM | NCI-H522 > 100 µM | CAKI-1 > 100 µM | UACC-257 > 100 µM | DU-145 > 100 µM | MDA-N > 100 µM | NCI-H23 > 100 µM | UO-31 > 100 µM | T47D > 100 µM

Cc1ccccc1-n1c(=O)c2ncn(C3CCCO3)c2n(-c2ccccc2C)c1=S (stereo not given)
inactive: SW-620 > 100 µM | KM12 > 100 µM | COLO 205 > 100 µM | EKVX > 100 µM | Hs-578T > 100 µM | HT-29 > 100 µM | HCT-116 > 100 µM | MOLT-4 > 100 µM | SF-295 > 100 µM | IGROV-1 > 100 µM | TK-10 > 100 µM | NCI-H522 > 100 µM | CAKI-1 > 100 µM | UACC-257 > 100 µM | DU-145 > 100 µM | MDA-N > 100 µM | NCI-H23 > 100 µM | UO-31 > 100 µM | T47D > 100 µM

O=C(O)c1nc2cc(C(F)(F)F)ccc2nc1Nc1ccc(Cl)c(Cl)c1
inactive: SW-620 10.8 µM | KM12 12.9 µM | COLO 205 16.6 µM | EKVX 17.9 µM | Hs-578T 14 µM | SR 21.6 µM | HT-29 15.3 µM | HCT-116 9.23 µM | SF-295 10.3 µM | IGROV-1 18 µM | TK-10 14.2 µM | NCI-H522 15.8 µM | CAKI-1 28.4 µM | UACC-257 20.7 µM | MDA-N 14 µM | NCI-H23 14.3 µM | UO-31 14.4 µM | T47D 14.1 µM

O=C(O)C/C(=C\c1ccccc1)C(=O)O
inactive: SW-620 > 100 µM | KM12 > 100 µM | COLO 205 > 100 µM | EKVX > 100 µM | Hs-578T > 100 µM | HT-29 > 100 µM | HCT-116 > 100 µM | MOLT-4 > 100 µM | SF-295 > 100 µM | IGROV-1 > 100 µM | TK-10 > 100 µM | NCI-H522 > 100 µM | CAKI-1 > 100 µM | UACC-257 > 100 µM | DU-145 > 100 µM | MDA-N > 100 µM | NCI-H23 > 100 µM | UO-31 > 100 µM | T47D > 100 µM

CCOC(=O)C1=CN2C(=N[C@H]3CCCC[C@@H]32)NC1=O
inactive: SW-620 > 100 µM | KM12 > 100 µM | COLO 205 > 100 µM | EKVX > 100 µM | Hs-578T > 100 µM | HT-29 > 100 µM | HCT-116 > 100 µM | MOLT-4 > 100 µM | SF-295 > 100 µM | IGROV-1 > 100 µM | TK-10 > 100 µM | NCI-H522 > 100 µM | CAKI-1 > 100 µM | UACC-257 > 100 µM | DU-145 > 100 µM | MDA-N > 100 µM | NCI-H23 > 100 µM | UO-31 > 100 µM | T47D > 100 µM

COc1ccc([C@H]2C=C(c3cc(F)c(Cl)cc3Cl)N=c3s/c(=C\c4ccc(-c5ccc(Cl)cc5Cl)o4)c(=O)n32)cc1
inactive: SW-620 51.1 µM | KM12 60.1 µM | COLO 205 80 µM | Hs-578T 34.8 µM | HT-29 37.2 µM | HCT-116 35.1 µM | MOLT-4 31.9 µM | SF-295 43.2 µM | IGROV-1 30.3 µM | TK-10 12.1 µM | NCI-H522 52.2 µM | CAKI-1 80.5 µM | UACC-257 30 µM | DU-145 71 µM | MDA-N 28.1 µM | NCI-H23 38.9 µM | UO-31 32.9 µM | T47D 19.6 µM
